Ends that are not written are not given here.
Tests used:
[1] = tested on: rd10 and rd10/Serpinf1−/− mice; test: Electroretinography (ERG) a-wave and b-wave after peptide eye drops; type: in vivo, mouse; conditions: for ERG a- and b-wave responses relative to vehicle-treated eyes: dark-adapted rd10 and rd10/Serpinf1−/− mice at P21, daily eye drops, n = 8
Description: Fig. 5: Effect of daily eyedrops of PEDF peptides on ERG a-wave and b-wave retinal function (A and B) Representative ERG waveforms for rd10 (A) and rd10/Serpinf1^−/− (B) mice at P21 in response to a light flash (1 cd.s/m^2). Amplitude (y-axis) is plotted against time in milliseconds (ms, x-axis). Treatments are indicated to the right of each plot and are color coded, with control wild type C57Bl/6J mice without peptide treatment shown in blue. A-wave and b-wave are indicated by arrows. (C and D) Photoreceptor a-wave amplitudes. Averages of photoreceptor a-wave amplitudes for rd10 (C) and rd10/Serpinf1^−/− (D) mice as a function of light intensity (cd/s.m^2, x-axis). Responses of animals treated with 17-mer are shown in green, H105A in black, and vehicle (HBSS) in red. Wildtype responses are shown in blue. (E and F) Bipolar cell b-wave amplitudes. Averages of bipolar cell b-wave amplitudes for rd10 (E) and rd10/Serpinf1^−/− (F) mice as a function of light intensity (cd/s.m^2, x-axis), with treatments indicated as in panels (C) and (D). The number of mice evaluated for the data shown in Panels C-F were n = 8 for each rd10, rd10/Serpinf1^−/− and wild type. Each data point represents the average ± SD of each genotype, analyzed by unpaired t-test. Statistical significance between H105A and vehicle is indicated by ##p < 0.01, ###p < 0.001, ####p < 0.0001, and between H105A and 17-mer by **p < 0.01, ***p < 0.001, ****p < 0.0001.
Electroretinogram (ERG) for rd10 and rd10/Serpinf1^−/− mice were recorded in both eyes of each animal using an Espion E2 system with ColorDome (Diagnosys LLC) with a heated surface and mice were dark-adapted overnight as previously described ([29]). Mice were placed on the heated surface and electrodes were placed in the mouth and a subdermal platinum needle electrode was placed in the back of the mouse to serve as ground. Responses were elicited with increasing light impulses with intensity from 0.0001 to 10 cd-seconds per meter squared (cd.s/m^2). Amplitudes for a-wave were measured from stimulus to the trough of the a-wave and b-wave amplitudes were measured from a-wave to b-wave trough or peak. The values from the a and b waves for both eyes were exported to Microsoft Excel to obtained amplitude values for each mouse.
Figure S2. Effects of extending the timeline or administering eye drops of 17-mer[H105A] peptide every other day in rd10 mic e.
Eye drops of H105A peptide solution were administered to r d1 0 mice either daily (Fig. S2A) or every other day (Fi g. S 2D). A total of 5 µl of a solution containing H105A peptide at 1 mg/ml in HBSS were applied as eye drops. The vehicle HBSS was added as eye drops in the contralateral eyes. When eye […]
intensity light at P25 (Fig. S2C). When eye drops of H105A were added every other day, a rescue in the ONL thickness in r d10 mice compared to vehicle was also observed (Fi g. S 2E), with an improvement in a- […]
efficacy of peptide H105A eye drops either daily or every other day in an extended timeline to stabilize photoreceptor morphology and light response function loss in r d10 mice, however, these were less efficacious than daily H105A peptide eye drops. […]
(C) ERG of r d1 0 mice at P25 and treated as in Fi g. […] For ERG data shown, the number of mice evaluated were n =5 for rd10 and each data point corresponds to the average ± SD of each genotype by unpaired t-test. *p < 0.05, **p < 0.01, * ** p < 0 .001 , ****p < 0.0001. […]

[2] = tested on: Rho^P23H/+ mice; test: H105A eye drops in Rho P23H/+ mice: BAX/BCL2 immunofluorescence, ONL and OS thickness; type: in vivo, mouse
Procedure: Fig. 6: Effects of eye drops containing H105A peptide in the photoreceptors of RhoP23H/+ mice (A) Scheme of experimental design. Daily peptide eye drops (5 μl of 1mg/ml peptide) were applied to mice starting at P14 until P19 when immunofluorescence of retinal cross sections was performed. The contralateral control eyes were treated with vehicle HBSS. (B) Immunostaining was performed with antibodies against BAX or BCL2 (green), and DAPI (blue). Histograms show quantification of immunofluorescence intensity for BAX and BCL2 markers. […] Each individual data point represents the average of one retina, with statistical significance determined by unpaired t-test (****p < 0.00001). Scale bar = 10 μm. […] (D) Quantification of ONL thickness represented in the spider graph confirmed a significant preservation in the ventral retina. […] Presented as average ± SEM, with statistics performed using One-way ANOVA * p<0.05
Eyes from Rho^P23H/+ mice eyes were enucleated and fixed in Davidson’s fix (Formaldehyde 8% (Merck, cat. F8775); Ethanol 32% (Carlo Erba, cat. 414608); Acetic Acid 10% (Merck, cat. 695092) over-night. After embedding in paraffin, 14 μm sections were collected. For TUNEL, sections were treated with 0.1 M Citrate Buffer pH 6 (Tri-sodium Citrate 10 mM (Carlo Erba, cat. 368007); Citric Acid 0.2 mM (Merck, cat: 251275) in microwave for 5 minutes, then labeling was performed for one hour at 37°C using a In Situ Cell Death Detection Kit (Merck, cat. 12156792910). Rod photoreceptors were labeled with anti-RHO 1D4 antibody followed by Alexa Fluor 568 anti-mouse secondary antibody (see Table S3). Cone photoreceptors were labeled with peanut agglutinin (PNA, Vector Laboratories, cat. FL-1071). GFP localization in control transduced retinas was identified with specific anti-GFP antibodies and Alexa Fluor 488 anti-mouse secondary antibody (see Table S3). For nuclear staining, 0.1 μg/mL DAPI was used. Slides were mounted with Mowiol 4–88 (Merck) and images acquired with a Zeiss Axio Imager A2 fluorescence microscope. To count TUNEL positive cells the RETINA Analysis Tool kit for ImageJ was used ([52]).
To generate spider plots, the ONL thickness was measured from images acquired with light microscopy of the retina sections stained with H&E or images of retina sections stained with DAPI with a dorsal-ventral orientation. The ONL thickness in the entire retina sections was measured at 5 different positions from both sides of the optic nerve (ON) using ImageJ, as described before ([28]). Alternatively, for DAPI stained images, a customed macro implemented in ImageJ was used to select only the ONL.

[3] = daily eye drops 5 μl of 1 mg/ml P14 to P19, vs contralateral HBSS

Sequence | ERG a- and b-wave responses relative to vehicle-treated eyes [1] | ERG a-wave ([1]; rd10 mice, eye drops every other day P15 until P23, ERG at P25, n = 5) | BAX level (immunofluorescence) [2, 3] | BCL2 level (immunofluorescence) [2, 3] | outer segments (OS) of rod photoreceptors labeled by rhodopsin ([2]; daily eye drops P14 to P19, P19, n = 9) | ONL thickness ([2]; daily eye drops P14 to P19, assessed at P19)
QRTESIIARALYYDLIS [H105A] | protected visual function | improvement | attenuated the levels of BAX | increased BCL2 | significantly preserved | significant preservation in the ventral part of the retina
QRTESIIHRALYYDLIS [17-mer] | protected visual function | – | – | – | – | –

— publication doi:10.1101/2024.07.10.602890, “H105A peptide eye drops promote photoreceptor survival in murine and human models of retinal degeneration” (bioRxiv, 2024)
